Article PMC10206162 (Nature Communications, 2023)
Like-named read-outs stand apart in the source and are kept apart here. Where no end group is shown, it is not given here.

How the values were obtained:
[1] = target: human NaV1.7 (Homo sapiens, UniProt Q15858); test: cell-based
[2] = target: human NaV1.8 (Homo sapiens, UniProt Q9Y5Y9); test: cell-based; conditions: EC50 (potency), hNaV1.8
[3] = target: human NaV1.9 (Homo sapiens, UniProt Q9UI33); format: cell-based
[4] = target: human NaV1.6 (Homo sapiens, UniProt Q9UQD0); test: cell-based
[5] = target: mouse NaV1.7 (Mus musculus, UniProt Q62205); test: cell-based; format: cell-based
Experimental: HEK293 cells stably expressing the α-subunit of mouse Nav1.7, human NaV1.6 or Nav1.7 plus the β1 subunit (SB Drug Discovery, Glasgow, United Kingdom) and Chinese Hamster Ovary (CHO) cells stably expressing human NaV1.8 plus the β3 subunit in a tetracycline-inducible system (ChanTest, Cleveland, OH, United States), were cultured were maintained on MEM supplemented with 10% heat-inactivated FBS, 2 mM L-glutamine in an incubator at 37 °C with 5% CO2 and passaged every 3–4 days (at 70–80% confluency) using TrypLE Express (Thermo Fisher Scientific).
Whole-cell patch-clamp experiments were performed using a QPatch16X automated electrophysiology platform (Sophion Bioscience, Ballerup, Denmark). The extracellular solution (ECS) contained 145 mM NaCl (replaced with 70 mM choline chloride for NaV1.7), 4 mM KCl, 2 mM CaCl2, 1 mM MgCl2, 10 mM HEPES, and 10 mM glucose (pH 7.4; osmolarity, 305 mOsm). The intracellular solution (ICS) contained 140 mM CsF, 1 mM/5 mM EGTA/CsOH, 10 mM HEPES, and 10 mM NaCl (pH 7.3) with CsOH (osmolarity, 320 mOsm). Peptides were diluted in ECS with 0.1% BSA.
Concentration-response experiments were performed using a holding potential of −90 mV and a 50-ms pulse to −20 mV ( + 10 mV for NaV1.8) every 20 s (0.05 Hz). […] Conductance-voltage curves were obtained by calculating the conductance (G) at each voltage (V) using the equation G = I/(V – Vrev), where Vrev is the reversal potential, and they were fitted with the following single or double Boltzmann equations: I = Imax/{1 + exp[(V50 − Vm)/k]} or I = {Imax(a)/[1+exp({V50 (a) – Vm}/k(a))]} + {Imax(b)/[1 + exp({V50(b) – Vm}/k(b))]}, where Imax is the maximal current after normalisation to the driving force, V50 is the half-activation potential, Vm is the membrane potential, and k is the slope factor. For statistical comparison of G-V curves, a two-tailed unpaired t-test was used.

mouse NaV1.7, sequence (Q62205 whole entry): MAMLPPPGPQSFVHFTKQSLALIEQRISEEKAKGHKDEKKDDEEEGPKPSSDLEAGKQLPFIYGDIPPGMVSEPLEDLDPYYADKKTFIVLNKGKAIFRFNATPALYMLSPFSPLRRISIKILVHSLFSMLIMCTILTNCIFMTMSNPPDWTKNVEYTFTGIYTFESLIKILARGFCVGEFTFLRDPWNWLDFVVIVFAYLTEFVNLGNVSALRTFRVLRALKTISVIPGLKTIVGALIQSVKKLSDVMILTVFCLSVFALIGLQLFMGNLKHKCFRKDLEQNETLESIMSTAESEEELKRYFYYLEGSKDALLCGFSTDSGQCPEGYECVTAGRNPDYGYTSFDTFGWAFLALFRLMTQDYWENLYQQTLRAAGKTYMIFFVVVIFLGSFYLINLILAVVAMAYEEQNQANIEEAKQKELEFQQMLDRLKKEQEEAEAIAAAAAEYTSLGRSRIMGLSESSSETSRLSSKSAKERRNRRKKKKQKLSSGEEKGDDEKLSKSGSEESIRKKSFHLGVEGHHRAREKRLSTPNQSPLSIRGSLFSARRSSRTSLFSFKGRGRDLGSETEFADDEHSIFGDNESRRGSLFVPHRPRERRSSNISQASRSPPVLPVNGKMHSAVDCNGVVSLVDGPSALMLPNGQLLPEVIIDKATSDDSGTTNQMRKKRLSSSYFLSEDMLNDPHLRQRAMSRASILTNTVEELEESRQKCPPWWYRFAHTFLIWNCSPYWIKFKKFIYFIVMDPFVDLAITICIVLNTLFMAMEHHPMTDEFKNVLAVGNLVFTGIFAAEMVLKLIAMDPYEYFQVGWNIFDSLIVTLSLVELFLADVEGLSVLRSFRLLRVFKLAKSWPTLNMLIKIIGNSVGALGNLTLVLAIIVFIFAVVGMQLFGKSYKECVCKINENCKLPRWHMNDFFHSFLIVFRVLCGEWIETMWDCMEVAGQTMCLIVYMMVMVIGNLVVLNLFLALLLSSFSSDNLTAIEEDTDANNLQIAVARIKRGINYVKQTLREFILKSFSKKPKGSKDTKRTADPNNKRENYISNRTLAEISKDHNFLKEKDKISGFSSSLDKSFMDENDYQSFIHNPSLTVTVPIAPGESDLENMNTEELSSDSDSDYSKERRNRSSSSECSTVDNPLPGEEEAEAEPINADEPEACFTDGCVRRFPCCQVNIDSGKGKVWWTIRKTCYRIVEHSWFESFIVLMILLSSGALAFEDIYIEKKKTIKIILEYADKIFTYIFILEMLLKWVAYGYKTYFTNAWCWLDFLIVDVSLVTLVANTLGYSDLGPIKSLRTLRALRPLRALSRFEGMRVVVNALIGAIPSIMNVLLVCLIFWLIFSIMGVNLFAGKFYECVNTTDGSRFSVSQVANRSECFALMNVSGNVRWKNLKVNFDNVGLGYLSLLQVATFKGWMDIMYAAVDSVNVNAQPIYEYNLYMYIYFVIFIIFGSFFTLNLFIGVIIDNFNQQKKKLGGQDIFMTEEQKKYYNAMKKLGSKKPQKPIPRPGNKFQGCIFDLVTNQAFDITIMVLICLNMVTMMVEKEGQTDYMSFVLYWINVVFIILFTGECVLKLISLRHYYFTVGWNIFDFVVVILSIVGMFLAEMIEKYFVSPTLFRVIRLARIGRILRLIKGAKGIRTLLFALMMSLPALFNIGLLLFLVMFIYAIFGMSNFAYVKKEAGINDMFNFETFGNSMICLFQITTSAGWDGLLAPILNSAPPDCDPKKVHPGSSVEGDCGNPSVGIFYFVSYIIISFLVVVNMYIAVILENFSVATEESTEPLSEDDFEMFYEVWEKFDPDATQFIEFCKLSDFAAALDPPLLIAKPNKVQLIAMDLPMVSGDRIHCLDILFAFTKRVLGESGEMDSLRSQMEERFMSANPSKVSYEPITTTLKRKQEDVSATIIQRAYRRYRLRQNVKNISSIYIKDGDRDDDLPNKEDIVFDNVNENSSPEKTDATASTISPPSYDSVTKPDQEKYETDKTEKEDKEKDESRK
mouse NaV1.7, sequence (Q07699 19-218, further chain): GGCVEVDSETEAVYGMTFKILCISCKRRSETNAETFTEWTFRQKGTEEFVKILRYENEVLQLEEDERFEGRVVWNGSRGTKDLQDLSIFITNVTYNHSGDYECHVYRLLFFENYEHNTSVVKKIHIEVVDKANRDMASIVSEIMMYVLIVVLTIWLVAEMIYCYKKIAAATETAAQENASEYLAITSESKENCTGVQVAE
human NaV1.7, sequence (Q07699 19-218): as the sequence (Q07699 19-218, further chain) above
human NaV1.7, sequence (Q15858 whole entry): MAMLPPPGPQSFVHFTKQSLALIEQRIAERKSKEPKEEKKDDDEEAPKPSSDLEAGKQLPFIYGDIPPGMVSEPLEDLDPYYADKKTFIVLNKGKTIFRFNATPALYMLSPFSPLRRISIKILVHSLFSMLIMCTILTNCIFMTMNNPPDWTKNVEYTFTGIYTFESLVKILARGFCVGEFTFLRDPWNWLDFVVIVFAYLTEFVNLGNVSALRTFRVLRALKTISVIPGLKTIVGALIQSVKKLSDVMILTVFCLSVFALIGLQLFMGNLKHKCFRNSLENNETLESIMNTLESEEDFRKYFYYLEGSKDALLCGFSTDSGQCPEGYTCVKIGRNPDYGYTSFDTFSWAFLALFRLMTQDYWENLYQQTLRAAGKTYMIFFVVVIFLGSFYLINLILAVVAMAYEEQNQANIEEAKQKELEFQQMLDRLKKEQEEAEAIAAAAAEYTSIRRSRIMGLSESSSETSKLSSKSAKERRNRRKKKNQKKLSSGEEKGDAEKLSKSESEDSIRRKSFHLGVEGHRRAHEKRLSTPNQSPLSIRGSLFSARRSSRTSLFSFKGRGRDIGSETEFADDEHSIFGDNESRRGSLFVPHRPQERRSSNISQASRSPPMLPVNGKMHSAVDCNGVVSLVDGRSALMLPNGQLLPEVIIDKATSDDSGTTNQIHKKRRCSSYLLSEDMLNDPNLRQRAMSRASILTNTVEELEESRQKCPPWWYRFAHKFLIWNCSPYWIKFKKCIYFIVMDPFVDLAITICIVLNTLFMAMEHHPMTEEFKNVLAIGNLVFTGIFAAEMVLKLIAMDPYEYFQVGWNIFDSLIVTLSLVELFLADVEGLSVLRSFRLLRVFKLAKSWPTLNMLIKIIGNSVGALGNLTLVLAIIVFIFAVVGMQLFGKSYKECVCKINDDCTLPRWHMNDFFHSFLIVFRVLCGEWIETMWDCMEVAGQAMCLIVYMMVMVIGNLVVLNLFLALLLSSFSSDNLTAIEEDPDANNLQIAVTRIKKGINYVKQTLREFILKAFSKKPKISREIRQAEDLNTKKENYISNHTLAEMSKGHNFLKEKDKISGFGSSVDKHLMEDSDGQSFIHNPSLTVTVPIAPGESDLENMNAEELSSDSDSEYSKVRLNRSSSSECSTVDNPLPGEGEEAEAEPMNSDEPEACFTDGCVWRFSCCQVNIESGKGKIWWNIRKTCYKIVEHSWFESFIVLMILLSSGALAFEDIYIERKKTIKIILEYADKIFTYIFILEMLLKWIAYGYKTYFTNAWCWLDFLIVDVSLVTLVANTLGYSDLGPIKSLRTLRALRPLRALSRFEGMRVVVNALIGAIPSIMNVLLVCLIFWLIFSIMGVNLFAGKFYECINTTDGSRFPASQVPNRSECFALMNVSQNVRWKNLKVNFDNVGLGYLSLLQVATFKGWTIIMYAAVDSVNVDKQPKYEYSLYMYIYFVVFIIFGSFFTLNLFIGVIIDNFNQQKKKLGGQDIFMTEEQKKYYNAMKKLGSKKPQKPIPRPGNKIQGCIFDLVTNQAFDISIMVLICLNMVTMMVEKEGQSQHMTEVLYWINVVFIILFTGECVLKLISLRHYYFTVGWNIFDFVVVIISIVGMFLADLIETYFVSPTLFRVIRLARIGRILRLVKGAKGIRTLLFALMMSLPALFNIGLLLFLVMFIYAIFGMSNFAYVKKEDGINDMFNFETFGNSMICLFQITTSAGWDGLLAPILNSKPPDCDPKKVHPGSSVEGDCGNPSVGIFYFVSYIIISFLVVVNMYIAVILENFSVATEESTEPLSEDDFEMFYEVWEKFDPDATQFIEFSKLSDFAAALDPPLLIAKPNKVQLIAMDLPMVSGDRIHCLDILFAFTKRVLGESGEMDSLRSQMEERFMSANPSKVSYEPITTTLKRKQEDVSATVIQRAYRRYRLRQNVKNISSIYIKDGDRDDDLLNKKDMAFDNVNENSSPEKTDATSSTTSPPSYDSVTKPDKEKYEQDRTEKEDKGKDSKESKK

Question: Which “hNaV1.7 peak current amplitude, % of control” value [1] does the source give for “FLPLLILGSLLMTPPVIQAIHDAQR-NH2 [Pc1a, poneratoxin]” here?
Answer: 57.8 ± 4.9%

Question: And the EC50 ([1]; EC50 (potency), hNaV1.7, SEM)?
Answer: 2300 ± 400 nM

Question: What about the “hNaV1.7 sustained current (I40-ms), % of control peak” value ([1]; SEM) of the same substance?
Answer: 12.2 ± 1.2%

Question: And the EC50 [2]?
Answer: > 10000 nM

Question: What about the “hNaV1.9 I50-ms, % of peak” value ([3]; SEM) of the same substance?
Answer: 58.6 ± 4.4%

Question: And the EC50 ([4]; SEM)?
Answer: 97 ± 10 nM

Question: What about the EC50 [5] of the same substance?
Answer: 1160 nM

Question: What about the “mNaV1.7 sustained current, % of control peak” value ([5]; 3 µM peptide, step –90 to –20 mV, n = 4-5 cells, mean ± SEM, SEM) of the same substance?
Answer: 8.8 ± 2.0%

Question: What about the EC50 ([5]; EC50 (potency), mNaV1.7, HEK293, hold −90 mV, pulse to −20 mV, I40-ms/Imax, mean ± SEM, SEM) of the same substance?
Answer: 1800 ± 200 nM

Question: And the EC50 ([5]; EC50, 95% CI (profile likelihood), mNaV1.7 (I40ms), Supplementary Fig. 2f / 2i)?
Answer: 718 to 2680 nM

Question: What does the source list for GLPLLALLMTLPFIQHAITN-NH2 [Mri1a]?
Answer: hNaV1.7 peak current amplitude, % of control [1]: 68.1 ± 10.6%; EC50 ([1]; EC50 (potency), hNaV1.7): > 10000 nM; EC50 ([1]; NaV1.7, best-fit EC50): 5600 nM; hNaV1.7 sustained current (I40-ms), % of control peak ([1]; SEM): 3.4 ± 0.7%; activity at hNaV1.9 (sustained current vs control) [3]: inactive; EC50 [4]: 3240 nM
